Test [1] has as its system Mus musculus. The experiment in a line: Anti-arthritic activity in po dosed CD-1 mouse assessed as inhibition of carrageenan-kaolin-induced arthritis at treated for 8 days relative to vehicle treated control. It is filed as functional, organism-based. The following applies: TDE = time-dependent effect.
Test [2] relates to Mus musculus. The experiment in a line: Antinociceptive activity against CD-1 mouse assessed as licking of hind paw or jumping at 100 mg/kg, po after 90 mins. The settings on record: CD-1, 1.5 h. It is filed as functional.
Test [3] has as its system Mus musculus. The experiment in a line: Antiinflammatory activity against carrageenan-kaolin-induced arthritis CD-1 mouse model assessed as decrease in PGE2 level in serum at 200 mg/kg, po for 8 days relative to vehicle treated control. It is filed as functional. The following applies: CD-1, Serum, 192 h.
In test [4] the test system is Mus musculus. The experiment in a line: Antinociceptive activity in CD-1 mouse assessed as licking time during phase 1 at 50 to 200 mg/kg, po administered 1 hr prior to formalin-challenge. It is filed as functional, organism-based.
Test [5] has as its system Mus musculus. The experiment in a line: Antiinflammatory activity in CD-1 mouse ear edema model assessed as reduction in TPA-induced edema size at 2 mg/ear, topically administered 30 mins prior to TPA-challenge measured after 6 hrs relative to control. It is filed as functional.
Test [6] deals with Mus musculus. The test can be described thus: Anti-arthritic activity against carrageenan-kaolin-induced arthritis CD-1 mouse model assessed as decrease in spleen index at 200 mg/kg, po for 8 days relative to vehicle treated control. It is filed as functional. The settings on record: CD-1, Spleen, 192 h.
Test [7] concerns Mus musculus. The experiment in a line: Antiinflammatory activity in CD-1 mouse ear edema model assessed as reduction in TPA-induced edema size at 200 mg/kg, po administered 30 mins prior to TPA-challenge for every 48 hrs for 10 days relative to vehicle treated control. It is filed as functional. The settings on record: CD-1, Ear.
Test [8] in a line: Antiinflammatory activity against Wistar rat erythrocytes assessed as inhibition of heat-induced hemolysis after 15 mins by membrane stabilizing activity assay. It is filed as functional, cell-based. The following applies: erythrocyte.
The subject of test [9] is Mus musculus. The experiment in a line: Anti-arthritic activity in CD-1 mouse assessed as inhibition of carrageenan-kaolin-induced arthritis at 200 mg/kg, po for 8 days relative to vehicle treated control. It is filed as functional. The settings on record: CD-1, 192 h.
Test [10] has as its system Mus musculus. The test can be described thus: Antiinflammatory activity against carrageenan-kaolin-induced arthritis CD-1 mouse model assessed as decrease in NO level in serum at 200 mg/kg, po for 8 days relative to vehicle treated control. The settings on record: CD-1, Serum, 192 h. It is filed as functional.
In test [11] the test system is Mus musculus. The experiment in a line: Anti-arthritic activity against carrageenan-kaolin-induced arthritis CD-1 mouse model assessed as decrease in IL-1beta level in serum at 1 mg/kg, po for 8 days relative to vehicle treated control. It is filed as functional.
Test [12] has as its system Mus musculus. The test can be described thus: Anti-arthritic activity against carrageenan-kaolin-induced arthritis CD-1 mouse model assessed as decrease in IL-6 level in serum at 1 mg/kg, po for 8 days relative to vehicle treated control. It is filed as functional.
Test [13] relates to Mus musculus. The test can be described thus: Anti-arthritic activity in CD-1 mouse assessed as inhibition of carrageenan-kaolin-induced arthritis at 1 mg/kg, po for 8 days relative to vehicle treated control. It is filed as functional. The settings on record: CD-1, 192 h.
Test [14] has as its system Mus musculus. The test can be described thus: Anti-arthritic activity against carrageenan-kaolin-induced arthritis CD-1 mouse model assessed as decrease in spleen index at 1 mg/kg, po for 8 days relative to vehicle treated control. It is filed as functional. The following applies: CD-1, Spleen, 192 h.
Test [15] deals with Mus musculus. The experiment in a line: Anti-arthritic activity against carrageenan-kaolin-induced arthritis CD-1 mouse model assessed as decrease in TNF-alpha level in serum at 1 mg/kg, po for 8 days relative to vehicle treated control. It is filed as functional.
Test [16] has as its system Mus musculus. The test can be described thus: Antiinflammatory activity against carrageenan-kaolin-induced arthritis CD-1 mouse model assessed as decrease in NO level in serum at 1 mg/kg, po for 8 days relative to vehicle treated control. It is filed as functional. The following applies: CD-1, Serum, 192 h.
The test system of test [17] is Mus musculus. The test can be described thus: Antiinflammatory activity against carrageenan-kaolin-induced arthritis CD-1 mouse model assessed as decrease in PGE2 level in serum at 1 mg/kg, po for 8 days relative to vehicle treated control. It is filed as functional. The settings on record: CD-1, Serum, 192 h.
Test [18] has as its system Mus musculus. The experiment in a line: Anti-arthritic activity against carrageenan-kaolin-induced arthritis CD-1 mouse model assessed as decrease in IL-6 level in serum at 200 mg/kg, po for 8 days relative to vehicle treated control. It is filed as functional.
Test [19] concerns Mus musculus. The test can be described thus: Anti-arthritic activity against carrageenan-kaolin-induced arthritis CD-1 mouse model assessed as decrease in TNF-alpha level in serum at 200 mg/kg, po for 8 days relative to vehicle treated control. It is filed as functional.
The subject of test [20] is Mus musculus. The test can be described thus: Anti-arthritic activity against carrageenan-kaolin-induced arthritis CD-1 mouse model assessed as decrease in IL-1beta level in serum at 200 mg/kg, po for 8 days relative to vehicle treated control. It is filed as functional.
Test [21] relates to Mus musculus. The experiment in a line: Antiinflammatory activity in CD-1 mouse ear edema model assessed as reduction in TPA-induced edema size at 8 mg/kg, po administered 30 mins prior to TPA-challenge for every 48 hrs for 10 days relative to vehicle treated control. It is filed as functional. The settings on record: CD-1, Ear.
The subject of test [22] is Mus musculus. The test can be described thus: Antiinflammatory activity in po dosed CD-1 mouse ear edema model assessed as reduction in TPA-induced edema size administered 30 mins prior to TPA-challenge for every 48 hrs for 10 days relative to vehicle treated control. It is filed as functional, organism-based.

Each structure is given as a SMILES string. Activity calls are given as the source filed them. The rule behind the calls is not given here.

For `Fc1ccc(-c2c3nc(c(-c4ccc(F)cc4)c4ccc([nH]4)c(-c4ccc(F)cc4)c4nc(c(-c5ccc(F)cc5)c5ccc2[nH]5)C=C4)C=C3)cc1`, in test [1], the Activity result was “tde”. Moreover, in test [2], the inhibition in vivo at 100 mg/kg was 20%. The inhibition in vivo at 200 mg/kg in test [3] was determined as 41%; in test [6] it was 20%; in test [7] it was 36%; in test [9] it was 30%; in [10], 44%. The result in test [4] was Active. Moreover, the “inhibition (INH)” value in [5] was 38%. Also, the EC50 in test [8] came out at 395 µM.
In the case of `CN(Cc1cnc2nc(N)nc(N)c2n1)c1ccc(C(=O)N[C@@H](CCC(=O)O)C(=O)O)cc1` [METHOTREXATE], the “fold change (FC)” value in test [11] came out at 2; in [12] it was 2.8; in [15], 2.1. Further, the Activity entry in test [1] was “tde”. The inhibition in vivo at 1 mg/kg in test [13] was found to be 49%; in [14], 38%; in [16] it was 76%; in test [17] it was 66%.
Consider `COc1ccc2cc([C@H](C)C(=O)O)ccc2c1` [NAPROXEN], for which the inhibition in vivo at 100 mg/kg in test [2] was found to be 36%. Besides, the EC50 in test [8] was 756 µM.
With `Brc1ccc(-c2c3nc(c(-c4ccc(Br)cc4)c4ccc([nH]4)c(-c4ccc(Br)cc4)c4nc(c(-c5ccc(Br)cc5)c5ccc2[nH]5)C=C4)C=C3)cc1`, the “fold change (FC)” value in [18] was 1.3; in [19], 1.1; in test [20] it was 1.6. For the same molecule, the Activity entry in [1] is “tde”. The inhibition in vivo at 100 mg/kg in test [2] stood at 32%. The inhibition in vivo at 200 mg/kg in [3] was 32%; in test [6], 17%; in test [7] it was 23%; in test [9] it was 27%; in test [10] it was 36%. Moreover, the outcome in test [4] was Active. Moreover, in test [5], the “inhibition (INH)” value was found to be 67%. In addition, the EC50 in test [8] worked out at 342 µM.
For `COc1ccc2c(c1)c(CC(=O)O)c(C)n2C(=O)c1ccc(Cl)cc1` [INDOMETHACIN], the “inhibition (INH)” value in [5] was determined as 76%. For the same molecule, the inhibition in vivo at 8 mg/kg in test [21] turned out to be 55%. The inhibition result in test [22] is “Dose-dependent effect”.

Usually inhibition in vivo stands for the relative decrease from the control value, in per cent. Broadly, the EC50 is the concentration at which the effect is half-maximal.

The record behind these values is ChEMBL document CHEMBL3400067, “Synthesis, antinociceptive and anti-inflammatory effects of porphyrins” (Bioorg Med Chem, 2015).
